Results published in BigSolDB 2.1.

N#CNC(=N)N
solubility (mole fraction)
Conditions	278.15 K	283.15 K	288.15 K	293.15 K	298.15 K	303.15 K	308.15 K	313.15 K	318.15 K	323.15 K
in DMF	0.183	0.19	0.205	0.215	0.225	0.243	0.248	0.256	0.268	0.275
in acetone	0.00744	0.0084	0.00923	0.0101	0.011	0.0118	0.0127	0.0136	0.0144	0.015
in ethanol	0.00374	0.00403	0.00449	0.00493	0.00591	0.00654	0.00738	0.00805	0.00883	0.0097
in ethylene glycol	0.0187	0.0245	0.0289	0.0377	0.048	0.0587	0.0655	0.0805	0.0995	0.12
in methanol	0.0141	0.0162	0.0193	0.021	0.0231	0.0264	0.028	0.0297	0.032	0.0347
in water	0.00303	0.00387	0.00526	0.00707	0.00891	0.0114	0.0141	0.0172	0.021	0.0265
